In publication PMC7875120 (Bioorganic & medicinal chemistry, 2020):
Counter-ions that a name gives are not always drawn.

Tests used:
U251 cancer cells = test: U251 cytotoxicity assay; assay type: cell-based, human; details: versus compound 5
[1] = system: cellular microtubules in A-10 cells; test: Microtubule depolymerizing effects, cell-based phenotypic screen; details: for microtubule depolymerizing activity: at 10000 nM, A-10 cells
HeLa cells = test: Antiproliferative activity in parental HeLa cells; assay type: cell-based; details: Homo sapiens, read-out: IC50 ± SD HeLa
SK-OV-3 cells = test: Antiproliferative activity in parental SK-OV-3 cells; assay type: cell-based; details: Homo sapiens, SK-OV-3, read-out: IC50 ± SD SK-OV-3
MDA-MB-435 cancer cells = details: earlier report; cited from earlier work
[2] = Maximal tolerated dose, dose escalation study; assay type: in vivo; details: nude mice, escalation until >5% weight loss
[3] = system: U251 human glioma cells implanted into nude mice; test: U251 flank xenograft study; assay type: in vivo; details: 17.5 mg/kg twice week
NCI 60 cancer cell lines = test: NCI 60 cell line panel; assay type: cell-based; details: values in Table S2, not available

## COc1cccc2c(N(C)c3nc(C)nc4c3CCC4)cccc12 [Compound 7, N-(5’-methoxynaphthyl-1’)-N,2-dimethyl-cyclopenta[d]pyrimidin-4-amine hydrochloric acid salt]
U251 cancer cells
  fold less potent/active than 5 in the U251 cytotoxicity assay: 2 fold

## COc1ccc2c(N(C)c3ncnc4c3CCC4)cccc2c1 [Compound 8, N-(6’-methoxynaphthyl-1’)-N-methyl-cyclopenta[d]pyrimidin-4-amine]
[1]
  microtubule depolymerizing activity: no microtubule depolymerizing activity
U251 cancer cells
  fold less potent/active than 5 in the U251 cytotoxicity assay: 7 fold

## COc1ccc(N(C)c2nc(C)nc3c2CCC3)cc1 [Compound 3, 2,4-dimethyl-4-(4′-methoxy)phenyl cyclopenta[d]pyrimidine]
HeLa cells
  IC50: 12 ± 1.2 nM
SK-OV-3 cells
  IC50: 11.3 ± 0.2 nM

## COc1ccc(Nc2nc(C)nc3c2CC(C)C3)cc1 (stereo not drawn) [Compound 2]
MDA-MB-435 cancer cells
  antiproliferative and microtubule depolymerizing activity: almost inactive

## Cn1nnc2c(C(N)=O)ncn2c1=O [temozolomide, reference compound]
[2]
  Maximal tolerated dose (MTD): 50 mg/kg/wk

## COc1ccc2c(N(C)c3nc(C)nc4c3CCC4)cccc2c1 [Compound 4, N-(6’-methoxynaphthyl-1’)-N,2-dimethyl-cyclopenta[d]pyrimidin-4-amine hydrochloric acid salt]
[1]
  microtubule depolymerizing activity: no microtubule depolymerizing activity
U251 cancer cells
  fold less potent/active than 5 in the U251 cytotoxicity assay: 5 fold

## COc1ccc(N(C)c2nc(C)nc3c2CCC3)c2ccccc12 [Compound 6, N-(4’-methoxynaphthyl-1’)-N,2-dimethyl-cyclopenta[d]pyrimidin-4-amine]
[1]; versus compound 5
  fold less potent than 5 for microtubule depolymerizing activity: more than 100 fold
U251 cancer cells
  fold less potent/active than 5 in the U251 cytotoxicity assay: 2 fold

## COc1cccc2cc(N(C)c3ncnc4c3CCC4)ccc12 [Compound 9, N-(5’-methoxynaphthyl-2’)-N-methyl-cyclopenta[d]pyrimidin-4-amine hydrochloric salt]
U251 cancer cells
  fold less potent/active than 5 in the U251 cytotoxicity assay: 4 fold

## COc1cccc2cc(N(C)c3nc(C)nc4c3CCC4)ccc12 [Compound 5, N-(5’-methoxynaphthyl-2’)-N,2-dimethyl-cyclopenta[d]pyrimidin-4-amine hydrochloric acid salt]
[1]; versus CA-4
  fold more potent than CA-4 in microtubule depolymerizing activity: about 3 fold
[3]; U251 xenograft mice
  toxicity as measured by animal weight: without significant toxicity
[3]; started 7 days after implantation
  tumor growth (tumor volume) in U251 xenograft: inhibited tumor growth as compared with the carrier or temozolomide
NCI 60 cancer cell lines
  GI50s in the NCI 60 cell line panel: potent GI50s against most of the NCI 60 cancer cell lines
[2]
  Maximal tolerated dose (MTD): 17.5 mg/kg/2x wk

## COc1ccc(/C=C\c2cc(OC)c(OC)c(OC)c2)cc1O [CA-4, Combretastatin A-4]
HeLa cells
  IC50: 4.7 ± 0.2 nM
